From PubChem BioAssay AID256 (DTP/NCI, 2004)
Where “and” joins values, the source holds several entries; their conditions need not be identical. Equal entries are not always repeated. Toxic doses and inconclusive results are not listed.

Test system: CD2F1 mice, L1210 leukemia ip, survival T/C
Assay: NCI In Vivo Anticancer Drug Screen. Data for tumor model L1210 Leukemia (intraperitoneal) in CD2F1 (CDF1) mice
Details: higher = longer survival
In short: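 In this screen, transplantable tumors were grown in mice given either the compound or its vehicle. Results were expressed as the treated measurement relative to the control measurement.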

[1] = endpoint: mean survival time, dose: 100.0 mg/kg/injection, schedule: Q01DX009 (ip), vehicle: saline
[2] = endpoint: mean survival time, dose: 200.0 mg/kg/injection, schedule: Q01DX009 (ip), vehicle: saline
[3] = endpoint: mean survival time, dose: 400.0 mg/kg/injection, schedule: Q01DX009 (ip), vehicle: saline
[4] = endpoint: mean survival time, dose: 100.0 mg/kg/injection, schedule: Q01DX009 (ip), vehicle: saline with Tween-80
[5] = endpoint: mean survival time, dose: 200.0 mg/kg/injection, schedule: Q01DX009 (ip), vehicle: saline with Tween-80
[6] = endpoint: mean survival time, dose: 400.0 mg/kg/injection, schedule: Q01DX009 (ip), vehicle: saline with Tween-80
[7] = endpoint: mean survival time, dose: 12.5 mg/kg/injection, schedule: Q01DX009 (ip), vehicle: saline with Tween-80
[8] = endpoint: mean survival time, dose: 25.0 mg/kg/injection, schedule: Q01DX009 (ip), vehicle: saline with Tween-80
[9] = endpoint: mean survival time, dose: 100.0 mg/kg/injection, schedule: Q04DX002 (ip), vehicle: saline with Tween-80
[10] = endpoint: mean survival time, dose: 200.0 mg/kg/injection, schedule: Q04DX002 (ip), vehicle: saline with Tween-80
[11] = endpoint: mean survival time, dose: 400.0 mg/kg/injection, schedule: Q04DX002 (ip), vehicle: saline with Tween-80
[12] = endpoint: mean survival time, dose: 100.0 mg/kg/injection, schedule: Q04DX003 (ip), vehicle: saline with Tween-80
[13] = endpoint: mean survival time, dose: 200.0 mg/kg/injection, schedule: Q04DX003 (ip), vehicle: saline with Tween-80
[14] = endpoint: mean survival time, dose: 400.0 mg/kg/injection, schedule: Q04DX003 (ip), vehicle: saline with Tween-80
[15] = endpoint: mean survival time, dose: 50.0 mg/kg/injection, schedule: Q01DX009 (ip), vehicle: saline with Tween-80

NC1=NCN(C2OC(CO)C(O)C2O)C(=O)N1 (stereo not given)
T/C (endpoint: mean survival time, dose: 1.56 mg/kg/injection, schedule: Q01DX009 (ip), vehicle: saline): 96 % of control
T/C (endpoint: mean survival time, dose: 3.12 mg/kg/injection, schedule: Q01DX009 (ip), vehicle: saline): 113 % of control and 120 % of control and 93 % of control
T/C (endpoint: mean survival time, dose: 3.13 mg/kg/injection, schedule: Q01DX009 (ip), vehicle: saline): 113 % of control
T/C (endpoint: mean survival time, dose: 6.25 mg/kg/injection, schedule: Q01DX009 (ip), vehicle: saline): 96 % of control
T/C (endpoint: mean survival time, dose: 12.5 mg/kg/injection, schedule: Q01DX009 (ip), vehicle: saline): 89 % of control
T/C (endpoint: mean survival time, dose: 25.0 mg/kg/injection, schedule: Q01DX009 (ip), vehicle: saline): 90 % of control and 100 % of control
T/C (endpoint: mean survival time, dose: 50.0 mg/kg/injection, schedule: Q01DX009 (ip), vehicle: saline): 110 % of control
T/C (endpoint: mean survival time, dose: 50.0 mg/kg/injection, schedule: Q01DX009 (oral), vehicle: saline): 96 % of control
T/C [1]: 95 % of control
T/C (endpoint: mean survival time, dose: 100.0 mg/kg/injection, schedule: Q01DX009 (oral), vehicle: saline): 110 % of control
T/C [2]: 95 % of control
T/C (endpoint: mean survival time, dose: 200.0 mg/kg/injection, schedule: Q01DX009 (oral), vehicle: saline): 119 % of control
T/C [3]: 124 % of control
T/C (endpoint: mean survival time, dose: 600.0 mg/kg/injection, schedule: Q01DX009 (ip), vehicle: saline): 100 % of control
T/C (endpoint: mean survival time, dose: 800.0 mg/kg/injection, schedule: Q01DX009 (oral), vehicle: saline): 118 % of control
T/C (endpoint: median survival time, dose: 1.56 mg/kg/injection, schedule: Q01DX009 (ip), vehicle: saline): 110 % of control
T/C (endpoint: median survival time, dose: 32.0 mg/kg/injection, schedule: Q03HX008 (ip), vehicle: saline): 124 % of control
T/C (endpoint: median survival time, dose: 64.0 mg/kg/injection, schedule: Q01DX001 (oral), vehicle: saline): 98 % of control
T/C (endpoint: median survival time, dose: 64.0 mg/kg/injection, schedule: Q01DX009 (oral), vehicle: saline): 100 % of control
T/C (endpoint: median survival time, dose: 64.0 mg/kg/injection, schedule: Q03HX008 (ip), vehicle: saline): 124 % of control
T/C (endpoint: median survival time, dose: 128.0 mg/kg/injection, schedule: Q03HX024 (oral), vehicle: saline): 113 % of control
T/C (endpoint: median survival time, dose: 128.0 mg/kg/injection, schedule: Q04DX003 (oral), vehicle: saline): 98 % of control
T/C (endpoint: median survival time, dose: 256.0 mg/kg/injection, schedule: Q01DX001 (ip), vehicle: saline): 124 % of control
T/C (endpoint: median survival time, dose: 256.0 mg/kg/injection, schedule: Q01DX001 (oral), vehicle: saline): 100 % of control
T/C (endpoint: median survival time, dose: 256.0 mg/kg/injection, schedule: Q03HX008 (oral), vehicle: saline): 118 % of control
T/C (endpoint: median survival time, dose: 256.0 mg/kg/injection, schedule: Q04DX003 (oral), vehicle: saline): 100 % of control
T/C (endpoint: median survival time, dose: 512.0 mg/kg/injection, schedule: Q03HX008 (oral), vehicle: saline): 124 % of control
T/C (endpoint: median survival time, dose: 512.0 mg/kg/injection, schedule: Q04DX003 (oral), vehicle: saline): 113 % of control
T/C (endpoint: median survival time, dose: 1024.0 mg/kg/injection, schedule: Q01DX001 (oral), vehicle: saline): 124 % of control
T/C (endpoint: median survival time, dose: 1024.0 mg/kg/injection, schedule: Q01DX009 (ip), vehicle: saline): 92 % of control and 98 % of control
T/C (endpoint: median survival time, dose: 1024.0 mg/kg/injection, schedule: Q01DX009 (sc), vehicle: saline): 91 % of control

O=[N+]([O-])c1ccc(O)c(C[P+](c2ccccc2)(c2ccccc2)c2ccccc2)c1
T/C [4]: 93 % of control
T/C [5]: 95 % of control
T/C [6]: 102 % of control

C/C(=N/N)c1ccc(Br)cc1
T/C (endpoint: mean survival time, dose: 6.25 mg/kg/injection, schedule: Q01DX009 (ip), vehicle: saline with Tween-80): 106 % of control
T/C (endpoint: mean survival time, dose: 6.25 mg/kg/injection, schedule: Q04DX003 (ip), vehicle: saline with Tween-80): 101 % of control
T/C [7]: 116 % of control
T/C (endpoint: mean survival time, dose: 12.5 mg/kg/injection, schedule: Q04DX003 (ip), vehicle: saline with Tween-80): 98 % of control
T/C [8]: 110 % of control
T/C (endpoint: mean survival time, dose: 25.0 mg/kg/injection, schedule: Q04DX003 (ip), vehicle: saline with Tween-80): 95 % of control

CC1=C(C2=C(C)C([N+](=O)[O-])(C(C)(C)C)C=C(C(C)(C)C)C2=O)C(=O)C(C(C)(C)C)=CC1([N+](=O)[O-])C(C)(C)C (stereo not given)
T/C [9]: 90 % of control
T/C [10]: 94 % of control
T/C [11]: 90 % of control

O=c1[nH]cccc1O
T/C (endpoint: median survival time, dose: 50.0 mg/kg/injection, schedule: Q01DX009 (ip), vehicle: saline with Tween-80): 103 % of control and 104 % of control and 108 % of control
T/C (endpoint: median survival time, dose: 62.5 mg/kg/injection, schedule: Q01DX009 (ip), vehicle: saline with Tween-80): 102 % of control
T/C (endpoint: median survival time, dose: 66.7 mg/kg/injection, schedule: Q03HX027 (ip), vehicle: saline with Tween-80): 96 % of control
T/C (endpoint: median survival time, dose: 125.0 mg/kg/injection, schedule: Q01DX009 (ip), vehicle: saline with Tween-80): 113 % of control
T/C (endpoint: median survival time, dose: 133.0 mg/kg/injection, schedule: Q03HX027 (ip), vehicle: saline with Tween-80): 103 % of control
T/C (endpoint: median survival time, dose: 250.0 mg/kg/injection, schedule: Q01DX009 (ip), vehicle: saline with Tween-80): 116 % of control
T/C (endpoint: median survival time, dose: 266.0 mg/kg/injection, schedule: Q03HX027 (ip), vehicle: saline with Tween-80): 155 % of control

O=C(CCl)Nc1ccc([N+](=O)[O-])cc1
T/C [11]: 87 % of control

O=C(O)C1CCN1C1CCCCC1 (stereo not given)
T/C [1]: 98 % of control
T/C [12]: 103 % of control
T/C [2]: 100 % of control
T/C [13]: 103 % of control
T/C [3]: 98 % of control
T/C [14]: 100 % of control

CC1(C)OCC2OC3(C(=O)O)OC(C)(C)OC3C2O1 (stereo not given)
T/C (endpoint: mean survival time, dose: 50.0 mg/kg/injection, schedule: Q01DX005 (ip), vehicle: saline with Tween-80): 88 % of control
T/C [15]: 98 % of control
T/C (endpoint: mean survival time, dose: 50.0 mg/kg/injection, schedule: Q04DX002 (ip), vehicle: saline with Tween-80): 108 % of control
T/C (endpoint: mean survival time, dose: 100.0 mg/kg/injection, schedule: Q01DX005 (ip), vehicle: saline with Tween-80): 88 % of control
T/C [4]: 95 % of control
T/C [9]: 97 % of control
T/C (endpoint: mean survival time, dose: 200.0 mg/kg/injection, schedule: Q01DX005 (ip), vehicle: saline with Tween-80): 92 % of control
T/C [5]: 92 % of control
T/C [10]: 93 % of control
T/C (endpoint: mean survival time, dose: 400.0 mg/kg/injection, schedule: Q01DX005 (ip), vehicle: saline with Tween-80): 88 % of control
T/C [6]: 88 % of control
T/C [11]: 86 % of control

CCCC(N)C(=O)O (stereo not given)
T/C [15]: 106 % of control
T/C [4]: 98 % of control
T/C [5]: 104 % of control

CN(C)N=Nc1c(F)cccc1F
T/C (endpoint: mean survival time, dose: 6.25 mg/kg/injection, schedule: Q01DX009 (ip), vehicle: other): 98 % of control
T/C (endpoint: mean survival time, dose: 12.5 mg/kg/injection, schedule: Q01DX009 (ip), vehicle: other): 113 % of control and 93 % of control
T/C [7]: 98 % of control
T/C (endpoint: mean survival time, dose: 25.0 mg/kg/injection, schedule: Q01DX009 (ip), vehicle: other): 117 % of control and 100 % of control
T/C [8]: 106 % of control
T/C (endpoint: mean survival time, dose: 50.0 mg/kg/injection, schedule: Q01DX009 (ip), vehicle: other): 91 % of control
T/C [15]: 120 % of control
T/C (endpoint: mean survival time, dose: 100.0 mg/kg/injection, schedule: Q01DX009 (ip), vehicle: other): 102 % of control and 104 % of control

CCn1c(=O)c2nc(Cl)n(C3OCC(OC(C)=O)C(OC(C)=O)C3OC(C)=O)c2n(CC)c1=O (stereo not given)
T/C (endpoint: mean survival time, dose: 12.5 mg/kg/injection, schedule: Q01DX005 (ip), vehicle: distilled water + Tween-80): 96 % of control
T/C (endpoint: mean survival time, dose: 25.0 mg/kg/injection, schedule: Q01DX005 (ip), vehicle: distilled water + Tween-80): 96 % of control
T/C (endpoint: mean survival time, dose: 50.0 mg/kg/injection, schedule: Q01DX005 (ip), vehicle: distilled water + Tween-80): 96 % of control
T/C (endpoint: mean survival time, dose: 100.0 mg/kg/injection, schedule: Q01DX005 (ip), vehicle: distilled water + Tween-80): 98 % of control
T/C (endpoint: mean survival time, dose: 200.0 mg/kg/injection, schedule: Q01DX005 (ip), vehicle: distilled water + Tween-80): 98 % of control

CN(C)C
T/C [4]: 103 % of control
T/C [12]: 102 % of control
T/C [5]: 101 % of control
T/C [13]: 105 % of control
T/C [6]: 105 % of control
T/C [14]: 104 % of control

CC1(C)CC(=O)NC1=O
T/C [1]: 100 % of control
T/C [2]: 102 % of control
T/C [3]: 94 % of control

CC(=O)OCCC/C(=C\c1ccc(Cl)c(Cl)c1)[N+](=O)[O-]
T/C (endpoint: mean survival time, dose: 100.0 mg/kg/injection, schedule: Q01DX001 (ip), vehicle: saline): 100 % of control
